Data from patent publication US20220034908A1, “PHARMACEUTICAL COMPOSITION FOR PREVENTING OR TREATING FABRY DISEASE, CONTAINING TSP1 PROTEIN INHIBITOR AS ACTIVE INGREDIENT” (KOREA ADVANCED INSTITUTE OF SCIENCE AND TECHNOLOGY, priority 2018, published 2022).

Tests used:
Type in all cases: cell-based, human
[1] = tested on: vascular endothelial cells differentiated from normal iPSCs; experiment: Morphology of vascular endothelial cells differentiated from normal iPSCs after LysoGb3 treatment; conditions: treated for 9 days; FIG. 17
Description: Particularly, the vascular endothelial cells differentiated from normal iPSCs were treated with LysoGb3 protein (MATREYA LLC, USA) for 9 days, and then the morphology of the cells was confirmed.

[2] = tested on: TSP1 protein in vascular endothelial cells differentiated from normal iPSCs; experiment: Immunostaining of TSP1 protein expression location after LysoGb3 treatment; conditions: FIG. 20
[3] = tested on: KDR, eNOS and TSP1 genes in vascular endothelial cells differentiated from normal iPSCs; experiment: RT-PCR of vasculopathy-related genes after LysoGb3 treatment
Description: Particularly, the vascular endothelial cells differentiated from normal iPSCs were treated with LysoGb3 protein for 1, 3 or 5 days, and RNA was extracted from the cells using easy-BLUE (Intron). Then, RT-PCR was performed in the conventional manner to confirm the RNA expression levels of KDR, eNOS and TSP1 (Thrombospondin 1) genes related to vasculopathy. As a result, as shown in FIGS. 18a to 18c, the RNA expression levels of KDR, eNOS and TSP1 genes were increased 1 day after the treatment of LysoGb3 protein.

[4] = tested on: TSP1, KDR, eNOS and phospho-AKT in vascular endothelial cells differentiated from normal iPSCs; experiment: Western blotting of vasculopathy-related proteins after LysoGb3 treatment; conditions: treated for 3, 6, or 9 days; Western blot, FIG. 19
Description: (§1) Particularly, the FB-iPSCs prepared in Example 1 were treated with Fabrazyme, a therapeutic agent for Fabry disease, and starvation media in various combinations. Pro-Prep solution (Intron Biotechnology, Korea) was added to each sample and reacted at 4° C., followed by centrifugation at 1300 rpm for 10 minutes to obtain a supernatant. The obtained supernatant was electrophoresed on acrylamide gel and transferred to a nitrocellulose membrane, followed by blocking with 4% skim milk. Then, anti-LC3 antibody (1:1000, Santacruz, USA) was treated thereto and reacted at 4° C. for 24 hours, followed by washing three times with TBS containing tween-20. The protein expression level was confirmed by the conventional Western blotting. The expression level of each protein was corrected using GAPDH as a control.
The changes in the expression levels of vasculopathy-related proteins by Gb3 protein were confirmed using Western blotting. Particularly, the vascular endothelial cells differentiated from normal iPSCs were treated with LysoGb3 protein for 3, 6, or 9 days, and Western blotting was performed in the same manner as described in Experimental Example <3-1>. At this time, anti-TSP1 antibody (1:1000, Santacruz, USA), anti-KDR antibody (1:1000, Cell Signaling Technologies, USA), anti-eNOS antibody (1:1000, Cell Signaling Technologies, USA), anti-AKT antibody (1:1000, Cell Signaling Technologies, USA), and anti-phospho-AKT antibody (1:1000, Cell Signaling Technologies, USA) were used as antibodies.

[5] = tested on: TSP1, KDR and eNOS proteins in vascular endothelial cells differentiated from FB-iPSCs; experiment: Western blotting of vasculopathy-related proteins in vascular endothelial cells differentiated from FB-iPSCs
Description: as §1
(§2) Particularly, the vascular endothelial cells prepared in Example 2 were treated with Fabrazyme, and Western blotting was performed in the same manner as described in Experimental Example <3-1>. At this time, anti-KDR antibody (1:1000, Cell Signaling Technologies, USA), anti-eNOS antibody (1:1000, Cell Signaling Technologies, USA) and anti-TSP1 antibody (1:1000, Santacruz, USA) were used as antibodies.
Particularly, using the control group treated with only Fabrazyme on the vascular endothelial cells prepared in Example 2 and the experimental group treated with Fabrazyme and SB431542, Western blotting was performed in the same manner as described in Experimental Example <3-1>. At this time, anti-TSP1 antibody (1:1000, Santacruz, USA), anti-KDR antibody (1:1000, Cell Signaling Technologies, USA) and anti-eNOS antibody (1:1000, Cell Signaling Technologies, USA) were used as antibodies.

[6] = tested on: vascular endothelial cells differentiated from FB-iPSCs; experiment: Morphology of vascular endothelial cells differentiated from FB-iPSCs after TGF-β inhibitor treatment; conditions: for therapeutic effect on vasculopathy in patients with Fabry disease: conclusion of Experimental Example 9, patient-derived vascular endothelial cells
Description: Particularly, the FB-iPSCs prepared in Example 1 were cultured in a feeder-free state for 3 days. Thereafter, the medium was exchanged with RPMI-1640 medium containing 1% B27, to which 50 ng/ml of activin A and 20 ng/ml of BPM4 were added as growth factors, and then the cells were cultured for 2 days to differentiate into mesoderm cells. The medium was exchanged with RPMI-1640 medium containing 0.5% B27, to which 50 ng/ml of VEGFA and 50 ng/ml of bFGF were added as growth factors, and then the cells were cultured for 2 days to differentiate into vascular progenitors. CD34 positive cells capable of differentiating into vascular endothelial cells were isolated from the induced vascular progenitors by performing magnetic activated cell sorting (MACS) using CD34 magnetic beads. The isolated CD34 positive cells were further cultured for 2 days in EGM-2 medium (Lonza, USA) containing 100 ng/ml of VEGF-A and 100 ng/ml of bFGF as growth factors to differentiate into vascular endothelial cells. Particularly, using the control group treated with only Fabrazyme on the vascular endothelial cells prepared in Example 2, the experimental group treated with only SB431542 (Cayman Chemical, USA), and the experimental group treated with Fabrazyme and SB431542, the morphology of the cells was confirmed. Particularly, using the control group treated with only Fabrazyme on the vascular endothelial cells prepared in Example 2, the experimental group treated with Fabrazyme and SB431542, and the experimental group treated with Fabrazyme and losartan (Cayman Chemical, USA), the morphology of the cells was confirmed.

[7] = tested on: vascular endothelial cells differentiated from FB-iPSCs; experiment: Tube formation on matrigel (vasculogenesis) of vascular endothelial cells differentiated from FB-iPSCs; conditions: SB431542 only or Fabrazyme and SB431542 vs Fabrazyme only; FIGS. 23a-23e
Description: On the other hand, 70 μl of matrigel (corning) stock solution was put in a 96-well plate and hardened at 37° C., and then 1×10^4 vascular endothelial cells prepared in Example 2 and EGM2 medium were added thereto to confirm the tube formation. Particularly, using the control group treated with only Fabrazyme on the vascular endothelial cells prepared in Example 2, the experimental group treated with only SB431542, and the experimental group treated with Fabrazyme and SB431542, The tube formation was confirmed in the same manner as described in Experimental Example <4-2>.

[8] = tested on: SMAD2 protein phosphorylation in vascular endothelial cells differentiated from FB-iPSCs; experiment: Western blotting of SMAD2 phosphorylation (TGF-β activation) in vascular endothelial cells differentiated from FB-iPSCs; conditions: Fabrazyme treatment; vs normal control group; FIG. 14
Description: as §1
as §2, with “anti-SMAD2” for “anti-KDR antibody (1:1000, Cell Signaling Technologies, USA), anti-eNOS”, “anti-phospho-SMAD2” for “anti-TSP1”, “Cell Signaling Technologies,” for “Santacruz,”

[9] = tested on: LC3 protein in FB-iPSCs; experiment: Western blotting of LC3 protein in FB-iPSCs; conditions: Fabrazyme and starvation media in various combinations, vs normal cells, FIG. 4
Description: as §1

[10] = tested on: LC3, Beclin 1 and ubiquitin proteins in vascular endothelial cells of patients with Fabry disease; experiment: Western blotting of LC3, Beclin 1 and ubiquitin in vascular endothelial cells of patients with Fabry disease
Description: as §1
Particularly, vascular endothelial cells were isolated from the dermal tissue obtained from the patients with Fabry disease of Example 1, to which Fabrazyme was treated. Then, the expression levels of LC3, Beclin 1 and ubiquitin proteins were confirmed by performing Western blotting in the same manner as described in Experimental Example <3-1>. At this time, anti-LC3 antibody (1:1000, Santacruz, USA), anti-Beclin 1 antibody (1:500, Santacruz, USA), and anti-ubiquitin antibody (1:1000, Santacruz, USA) were used as antibodies.

[11] = tested on: TSP1 protein in vascular endothelial cells differentiated from normal iPSCs; experiment: Western blotting after activin A treatment of vascular endothelial cells differentiated from normal iPSCs; conditions: activin A treatment of normal iPSC-derived vascular endothelial cells; FIG. 15
Description: as §1
Particularly, the vascular endothelial cells differentiated from normal iPSCs were treated with activin A to activate TGF-β, and Western blotting was performed in the same manner as described in Experimental Example <3-1>. […]

[12] = Fabrazyme and SB431542 vs Fabrazyme only, Western blot, FIG. 22
[13] = given with Fabrazyme vs Fabrazyme only, Fab #1, Fab #2 (FIGS. 24a, 24b)
[14] = vascular endothelial cells of Fabry patients, Fabrazyme treatment, vs normal cells, FIG. 5

Molecule: CCCCCCCCCCCCC/C=C/[C@@H](O)[C@@H](N)CO[C@@H]1O[C@H](CO)[C@@H](O[C@@H]2O[C@H](CO)[C@H](O[C@H]3O[C@H](CO)[C@H](O)[C@H](O)[C@H]3O)[C@H](O)[C@H]2O)[C@H](O)[C@H]1O [LysoGb3 protein]
- morphology of the normal vascular endothelial cells [1]: changed to a widening form
- expression location (distribution) of TSP1 protein [2]: distributed throughout the cells
- RNA expression level of KDR gene ([3]; 1 day after the treatment): increased
- RNA expression level of TSP1 gene ([3]; 1 day after the treatment): increased
- RNA expression level of eNOS gene ([3]; 1 day after the treatment): increased
- RNA expression level of KDR gene ([3]; after 3 and 5 days): lower than those of the normal control cells
- RNA expression level of eNOS gene ([3]; after 3 and 5 days): lower than those of the normal control cells
- expression level of KDR protein [4]: decreased
- expression level of TSP1 protein [4]: increased
- expression level of eNOS protein [4]: decreased
- phosphorylation of AKT protein [4]: decreased

Molecule: NC(=O)c1ccc(-c2nc(-c3ccc4c(c3)OCO4)c(-c3ccccn3)[nH]2)cc1 [SB431542]
- expression level of KDR protein [5, 12]: increased
- expression level of TSP1 protein [5, 12]: decreased
- expression level of eNOS protein [5, 12]: increased
- abnormal morphology of the vascular endothelial cells differentiated from FB-iPSCs ([6]; SB431542 only or Fabrazyme and SB431542 vs Fabrazyme only, Fab #1-#4 (FIGS. 21a-21e)): restored to normal
- therapeutic effect on vasculopathy in patients with Fabry disease [6]: showed a therapeutic effect
- abnormal morphology of the vascular endothelial cells differentiated from FB-iPSCs [6, 13]: restored to normal
- tube formation on matrigel [7]: formed a tube shape

Molecule: CCCCc1nc(Cl)c(CO)n1Cc1ccc(-c2ccccc2-c2nn[nH]n2)cc1 [losartan]
- therapeutic effect on vasculopathy in patients with Fabry disease [6]: could not be confirmed
- abnormal morphology of the vascular endothelial cells differentiated from FB-iPSCs [6, 13]: had no effect

B1: Fabrazyme: recombinant alpha-galactosidase enzyme, a therapeutic agent for Fabry disease (protein, UniProt P06280 32-429, looked up)
Alpha-galactosidase A: LDNGLARTPTMGWLHWERFMCNLDCQEEPDSCISEKLFMEMAELMVSEGWKDAGYEYLCIDDCWMAPQRDSEGRLQADPQRFPHGIRQLANYVHSKGLKLGIYADVGNKTCAGFPGSFGYYDIDAQTFADWGVDLLKFDGCYCDSLENLADGYKHMSLALNRTGRSIVYSCEWPLYMWPFQKPNYTEIRQYCNHWRNFADIDDSWKSIKSILDWTSFNQERIVDVAGPGGWNDPDMLVIGNFGLSWNQQVTQMALWAIMAAPLFMSNDLRHISPQAKALLQDKDVIAINQDPLGKQGYQLRQGDNFEVWERPLSGLAWAVAMINRQEIGGPRSYTIAVASLGKGVACNPACFITQLLPVKRKLGFYEWTSRLRSHINPTGTVLLQLENTMQMSLKDLL
- increased expression level of TSP1 protein by Fabry disease ([5]; Fabrazyme treatment, vs normal control group, FIG. 13): not inhibited
- phosphorylation level of SMAD2 protein [8]: increased in the vascular endothelial cells derived from patients with Fabry disease compared to the normal control group regardless of the Fabrazyme treatment
- expression level of LC3 protein [9]: higher in FB-iPSCs than in normal cells regardless of the Fabrazyme treatment
- characteristics of the lysosomal storage disease ([10]; after the treatment of Fabrazyme, conclusion of Experimental Example 3): not recovered
- expression level of Beclin 1 protein [10, 14]: higher in vascular endothelial cells of patients with Fabry disease than in normal cells regardless of the Fabrazyme treatment
- expression level of LC3 protein [10, 14]: higher in vascular endothelial cells of patients with Fabry disease than in normal cells regardless of the Fabrazyme treatment
- expression level of ubiquitin protein [10, 14]: higher in vascular endothelial cells of patients with Fabry disease than in normal cells regardless of the Fabrazyme treatment

B2: activin A: growth factor used to activate TGF-β (protein, UniProt P08476 311-426, looked up)
Inhibin beta A chain: GLECDGKVNICCKKQFFVSFKDIGWNDWIIAPSGYHANYCEGECPSHIAGTSGSSLSFHSTVINHYRMRGHSPFANLKSCCVPTKLRPMSMLYYDDGQNIIKKDIQNMIVEECGCS
modifications: Inhibin beta A chain
- expression of TSP1 protein [11]: increased
